These results are taken from EP0388909A2, “Thiazole compounds, processes for the preparation thereof and pharmaceutical composition comprising the same” (FUJISAWA PHARMACEUTICAL CO., LTD., priority 1989, dated 1990).

One assay addresses T1, cyclooxygenase (Oryctolagus cuniculus, UniProt O97554).
T1 construct: Washed rabbit PRP (900 µl) was preincubated with drug solution; endogenous in cells; host or cells: washed rabbit platelets (PRP)
T1 sequence (O97554 31-606): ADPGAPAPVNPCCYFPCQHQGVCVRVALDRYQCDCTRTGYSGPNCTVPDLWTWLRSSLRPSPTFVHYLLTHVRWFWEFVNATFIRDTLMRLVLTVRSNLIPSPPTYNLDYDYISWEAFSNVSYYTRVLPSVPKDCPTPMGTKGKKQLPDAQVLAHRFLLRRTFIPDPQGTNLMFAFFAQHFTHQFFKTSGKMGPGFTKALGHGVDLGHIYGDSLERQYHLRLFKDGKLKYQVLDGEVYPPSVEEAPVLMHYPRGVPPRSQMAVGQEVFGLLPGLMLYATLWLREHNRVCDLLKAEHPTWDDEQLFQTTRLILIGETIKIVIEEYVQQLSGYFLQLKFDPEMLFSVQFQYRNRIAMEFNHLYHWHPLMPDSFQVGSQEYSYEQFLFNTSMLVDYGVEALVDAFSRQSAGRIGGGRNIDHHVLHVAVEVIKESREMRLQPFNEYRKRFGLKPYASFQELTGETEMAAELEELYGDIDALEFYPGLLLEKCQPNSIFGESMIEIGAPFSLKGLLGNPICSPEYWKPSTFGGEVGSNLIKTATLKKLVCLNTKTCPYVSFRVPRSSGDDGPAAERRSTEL
As to the kind of experiment: Effect on malondialdehyde (MDA) production in rabbit platelets. The assay is classed as cell-based. The settings on record: dose required to inhibit the production of malondialdehyde by 50%; washed rabbit PRP, arachidonic acid added; read-out: IC₅₀. As for the experimental part: Washed rabbit PRP (900 µl) was preincubated with drug solution (dissolved in dimethyl sulfoxide) (100 µl) at 37°C for 5 minutes. Then, 2.5 mM arachidonic acid solution (20 µl) was added to the reaction mixture. After 3 minutes, thiobarbiturate reagent (1000 µl) was added, and the reaction mixture was heated in a boiled water. After centrifugation at 1500 g for 10 minutes, the absorbance of suparnatant was measured at 532 nm. This test was carried out to see inhibitory activity of the test compound against the activity of cyclooxygenase. Activity of the test compound was expressed as IC₅₀ values i.e. doses required to inhibit the production of malondialdehyde by 50%.

For another assay, the system named is isolated rat aorta. As to the kind of experiment: Relaxation effect on isolated rat aorta (KCl-induced contraction). The settings on record: dose required to relax the isolated rat aorta by 50%; contraction induced by KCl 30 mM; maximum relaxation by 10⁻⁴M papaverine; read-out: ED₅₀. On the procedure:
Helical strip of rat thoracic aorta was suspended in the organ bath containing Tyrode solution gassed with 95% O₂ - 5% CO₂ at 37°C under 0.5 g load. Contraction was induced by addition of KCℓ solution (final concentration was 30 mM). […] Activities of the test compound were expressed as ED₅₀ values i.e. doses required to relax the isolated rat aorta by 50%.

In a further assay the test system is PRP. In words: Platelet aggregation ex vivo (arachidonic acid induced, PRP after oral dosing). The following applies: Cavia porcellus, 6 h, Dose 1.0 mg/kg oral, blood collected six hours after administration, arachidonic acid final 50 µM as aggregation inducer, male Hartley guinea-pigs. The assay is classed as in vivo. As for the experimental part: Male Hartley guinea-pigs weighing about 300 g were used after 24 hours fasting. Six hours after oral administration of the test compound or vehicle of test compound (control), blood was collected into a tube containing 0.1 vol. of 3.8% sodium citrate and prepared platelet rich plasma (PRP).
To the […] of PRP, 5 µl of arachidonic acid (final 50 µM) was added as an aggregation inducer. Aggregation was measured by using an aggregometer (NKK HEMA-TRACER 1).

The subject of a further assay is human washed platelets. In words: Thrombin induced aggregation in human washed platelets. The following applies: Concentration 1.0 x 10⁻⁵ M; thrombin final conc. 0.3-0.5 U/ml. The format is cell-based. On the procedure:
Blood was drawn from healthy volunteers into a plastic tube containing 1/10 volume of 3.8% sodium citrate and centrifuged at 120 g for 10 minutes to obtain platelet rich plasma (PRP). An equal volume of 25 mM Tris-HCl buffer (pH 7.4) containing 130 mM NaCl and 1.5 mM EDTA (buffer A) was added to the PRP, mixed and centrifuged at 1500 g for 10 minutes. The platelet pellet was suspended in buffer A and centrifuged at 1500 g for 5 minutes. The platelets were resuspended in 25 mM Tris-HCl buffer (pH 7.4) containing 130 mM NaCl and 0.3 mM EDTA and recentrifuged at 1500 g for 5 minutes. The platelets were finally suspended in Tyrode solution containing 0.3 % bovine serum albumin and the platelet count was adjusted to 3 x 10⁸/ml. To 247.5 µl of platelet suspension, 2.5 µl of drug solution was added and incubated for 2 minutes at 37°C prior to addition of thrombin solution (final conc. 0.3-0.5 U/ml). Platelet aggregation was turbidometrically measured using a HEMA-TRACER 1.

Where a name gives a salt, the structure may show the parent alone.

As to `COc1ccc(-c2nc(CNC(C)=O)sc2-c2ccc(OC)cc2)cc1` [Example 1, 2-acetylaminomethyl-4,5-bis(4-methoxyphenyl)thiazole], at cyclooxygenase, the IC50 was found to be 0.015 µM.
What is called inhibition is the drop in the measured response relative to a control, in per cent. With `COc1ccc(-c2nc(CNC(=O)C3=NNC(=O)CC3)sc2-c2ccc(OC)cc2)cc1` [Example 15, 4,5-bis(4-methoxyphenyl)-2-{(6-oxo-1,4,5,6-tetrahydropyridazin-3-yl)carbonyiaminomethyl}thiazole], in the assay with isolated rat aorta, the EC50 amounted to 7.3 µM. The inhibition at 1 mg/kg with PRP came out at 100%.
Regarding `COc1ccc(-c2nc(CNC(=O)c3cccnc3)sc2-c2ccc(OC)cc2)cc1` [Example 19, 4,5-bis(4-methoxyphenyl)-2-(nicotinoylaminomethyl)thiazole hydrochloride], the EC50 with isolated rat aorta was 8.2 µM.
On to `CNC(=O)NCc1nc(-c2ccc(OC)cc2)c(-c2ccc(OC)cc2)s1` [Example 24, 4,5-Bis(4-methoxyphenyl)-2-(3-methylureidomethyl)thiazole], for which the “Inhibition of the aggregation (%)” value in the assay with human washed platelets was 71.3%.
